Data as given in ChEMBL document CHEMBL4483862, “Open-source discovery of chemical leads for next-generation chemoprotective antimalarials” (2018).

System: Plasmodium berghei
Experiment: Luciferase/luciferin-expressing antifolate-resistant parasites were used to infect a culture of HepG2 cells that were pre-incubated with compounds. Infected hepatocytes emit light due to the luciferase reaction. Assay results are presented as the percent inhibition of light emission compared to control. […]
Format: functional
Conditions: sporozoite; for IC90: read-out: LUCIFERASE INFECTION ASSAY - IC90

With `Cc1cc2ccccn2c1C(=O)c1ccccc1Br` the IC50 (HEPG2TOX_HILL_SLOPE 6.22, HEPG2TOX_R_SQUARED 0.365, PBLUC_HILL_SLOPE 4.01, PBLUC_R_SQUARED 0.105, read-out: LUCIFERASE INFECTION ASSAY - IC50) was 9.81 µM and the IC90 was > 10 µM.
With `COc1ccccc1N(CC(=O)NCC12CC3CC(CC(C3)C1)C2)S(=O)(=O)c1ccccc1` the IC50 (HEPG2TOX_HILL_SLOPE 6.27, HEPG2TOX_R_SQUARED 0.869, read-out: LUCIFERASE INFECTION ASSAY - IC50) was > 10 µM and the IC90 was > 10 µM.
With `COc1ccc(NC(=O)NCC(=O)c2cc(C)n(-c3ccc(C)c(C)c3)c2C)cc1` the IC50 (HEPG2TOX_HILL_SLOPE 6.34, HEPG2TOX_R_SQUARED 0.826, PBLUC_HILL_SLOPE 22.8, PBLUC_R_SQUARED 0.569, read-out: LUCIFERASE INFECTION ASSAY - IC50) was 3.63 µM and the IC90 was 3.99 µM.
With `CC(=O)c1ccc(-c2ccc(C(=O)N3CCC(c4nc5ccccc5o4)CC3)o2)cc1` the IC50 (HEPG2TOX_HILL_SLOPE 6.21, HEPG2TOX_R_SQUARED 0.873, read-out: LUCIFERASE INFECTION ASSAY - IC50) was > 10 µM and the IC90 was > 10 µM.
In the case of `C=CCSc1nnc(-c2ccc(C(C)(C)C)cc2)n1-c1ccc(C(C)C)cc1`, the IC50 (HEPG2TOX_HILL_SLOPE 6.39, HEPG2TOX_R_SQUARED 0.425, PBLUC_HILL_SLOPE 3, PBLUC_R_SQUARED 0.616, read-out: LUCIFERASE INFECTION ASSAY - IC50) is reported as > 8.43 µM and the IC90 is reported as > 8.43 µM.
`Cc1ccc(-c2noc(CCC(=O)N3CCN(C/C=C/c4ccccc4)CC3)n2)cc1` was tested, and the IC50 (HEPG2TOX_HILL_SLOPE 6.22, HEPG2TOX_R_SQUARED 0.551, PBLUC_HILL_SLOPE 3.17, PBLUC_R_SQUARED 0.265, read-out: LUCIFERASE INFECTION ASSAY - IC50) was 5.07 µM and the IC90 was > 10 µM.
In the case of `CCOc1ccccc1N(C(=O)C1CC=CCC1)c1nc2ccccc2s1` (configuration not stated), the IC50 (HEPG2TOX_HILL_SLOPE 6.4, HEPG2TOX_R_SQUARED 0.335, PBLUC_HILL_SLOPE 2.71, PBLUC_R_SQUARED 0.0983, read-out: LUCIFERASE INFECTION ASSAY - IC50) is reported as 7.73 µM and the IC90 is reported as > 10 µM.
`COc1cccc(-c2cnn3ccc(Nc4cc(OC)c(OC)c(OC)c4)nc23)c1` was tested, and the IC50 (HEPG2TOX_HILL_SLOPE 6.32, HEPG2TOX_R_SQUARED 0.972, PBLUC_HILL_SLOPE 10.3, PBLUC_R_SQUARED 0.636, read-out: LUCIFERASE INFECTION ASSAY - IC50) was 2.7 µM and the IC90 was 3.34 µM.
`O=C(Nc1ccnn1Cc1ccc(Cl)cc1Cl)c1cccc(NC(=O)c2cccs2)c1` was tested, and the IC50 (HEPG2TOX_HILL_SLOPE 6.41, HEPG2TOX_R_SQUARED 0.384, PBLUC_HILL_SLOPE 10.4, PBLUC_R_SQUARED 0.292, read-out: LUCIFERASE INFECTION ASSAY - IC50) was 8.61 µM and the IC90 was > 10 µM.
`Cc1cc(SCC(=O)NC(C)C2CC3CCC2C3)n2c(nc3ccccc32)c1C#N` (configuration not stated) showed an IC50 (HEPG2TOX_HILL_SLOPE 6.37, HEPG2TOX_R_SQUARED 0.94, PBLUC_HILL_SLOPE 33.9, PBLUC_R_SQUARED 0.41, read-out: LUCIFERASE INFECTION ASSAY - IC50) of 3.32 µM and an IC90 of 3.54 µM.
For `COc1ccc(N2CCN(CCCNc3ncnc4cc(Cl)ccc34)CC2)cc1`, the IC50 (HEPG2TOX_HILL_SLOPE 6.44, HEPG2TOX_R_SQUARED 0.109, PBLUC_HILL_SLOPE 114, 20.9, PBLUC_R_SQUARED 0.138, 0.588, read-out: LUCIFERASE INFECTION ASSAY - IC50) was 3.33 µM and the IC90 was 3.54 µM.
In the case of `CC(C)C(CNc1ncnc2cc(Cl)ccc12)N1CCN(C)CC1` (configuration not stated), the IC50 (HEPG2TOX_HILL_SLOPE 6.21, HEPG2TOX_R_SQUARED 0.178, read-out: LUCIFERASE INFECTION ASSAY - IC50) is reported as > 10 µM and the IC90 is reported as > 10 µM.
For `COc1ccc(Cl)c(Nc2nc(-c3c(-c4ccc(Cl)cc4Cl)noc3C)cs2)c1`, the IC50 (HEPG2TOX_HILL_SLOPE 6.31, HEPG2TOX_R_SQUARED 0.301, PBLUC_HILL_SLOPE 9.51, PBLUC_R_SQUARED 0.295, read-out: LUCIFERASE INFECTION ASSAY - IC50) was 6.34 µM and the IC90 was > 7.07 µM.
With `Cc1ccc(-c2nnc3n2CCCCC3)cc1NC(=O)c1ccc([N+](=O)[O-])o1` the IC50 (HEPG2TOX_HILL_SLOPE 6.11, HEPG2TOX_R_SQUARED 0.316, PBLUC_HILL_SLOPE 1.35, PBLUC_R_SQUARED 0.486, read-out: LUCIFERASE INFECTION ASSAY - IC50) was 6.12 µM and the IC90 was > 10 µM.
Work on `COc1ccc(-c2cnn3ccc(Nc4ccc(OC)nc4)nc23)c(OC)c1` yielded an IC50 (HEPG2TOX_HILL_SLOPE 6.09, HEPG2TOX_R_SQUARED 0.857, PBLUC_HILL_SLOPE 12.3, PBLUC_R_SQUARED 0.558, read-out: LUCIFERASE INFECTION ASSAY - IC50) of 3.03 µM and an IC90 of 3.63 µM.
`Cc1ccc(S(=O)(=O)N2CCN(CC(=O)N3N=C4/C(=C/c5cccs5)CCCC4C3c3cccs3)CC2)cc1` (configuration not stated) showed an IC50 (HEPG2TOX_HILL_SLOPE 6.4, HEPG2TOX_R_SQUARED 0.688, PBLUC_HILL_SLOPE 11.3, PBLUC_R_SQUARED 0.553, read-out: LUCIFERASE INFECTION ASSAY - IC50) of 3.64 µM and an IC90 of 4.41 µM.
`O=C(Nc1cccc(Cl)c1)Nc1ccccc1N1CCCC1` was tested, and the IC50 (HEPG2TOX_HILL_SLOPE 6.22, HEPG2TOX_R_SQUARED 0.342, PBLUC_HILL_SLOPE 2.56, PBLUC_R_SQUARED 0.455, read-out: LUCIFERASE INFECTION ASSAY - IC50) was 6.9 µM and the IC90 was > 10.4 µM.
In the case of `O=C1N/C(=N\C2CCCC2)S/C1=C\c1ccc2c(c1)OCCO2`, the IC50 (HEPG2TOX_HILL_SLOPE 6.25, HEPG2TOX_R_SQUARED 0.845, PBLUC_HILL_SLOPE 2.64, PBLUC_R_SQUARED 0.759, read-out: LUCIFERASE INFECTION ASSAY - IC50) is reported as 3.38 µM and the IC90 is reported as 7.77 µM.
For `O=C1N(Cc2ccccn2)C(=O)C2(CCN(Cc3cc4ccccc4o3)CC2)N1CCc1ccccc1`, the IC50 (HEPG2TOX_HILL_SLOPE 6.35, HEPG2TOX_R_SQUARED 0.629, PBLUC_HILL_SLOPE 2.7, PBLUC_R_SQUARED 0.846, read-out: LUCIFERASE INFECTION ASSAY - IC50) was 4.34 µM and the IC90 was > 6.67 µM.
In the case of `O=c1[nH][nH]c(-c2ccccc2)c1C=NCc1cccc(C(F)(F)F)c1`, the IC50 (HEPG2TOX_HILL_SLOPE 6.09, HEPG2TOX_R_SQUARED 0.916, PBLUC_HILL_SLOPE 3.54, PBLUC_R_SQUARED 0.303, read-out: LUCIFERASE INFECTION ASSAY - IC50) is reported as 7.61 µM and the IC90 is reported as > 9.56 µM.
For `O=C(NNC(=S)NC(=O)c1cn(-c2ccccc2)nc1-c1ccc(Br)cc1)c1ccncc1`, the IC50 (HEPG2TOX_HILL_SLOPE 6.43, HEPG2TOX_R_SQUARED 0.426, PBLUC_HILL_SLOPE 13.5, PBLUC_R_SQUARED 0.624, read-out: LUCIFERASE INFECTION ASSAY - IC50) was 2.96 µM and the IC90 was 3.48 µM.
With `CCn1c(NC(=O)Cc2csc(-n3c(C)ccc3C)n2)nc2ccccc21` the IC50 (HEPG2TOX_HILL_SLOPE 6.15, HEPG2TOX_R_SQUARED 0.156, PBLUC_HILL_SLOPE 14.1, PBLUC_R_SQUARED 0.172, read-out: LUCIFERASE INFECTION ASSAY - IC50) was 8.84 µM and the IC90 was > 10 µM.
With `Fc1ccc(Nc2nccc3nc(-c4ccccc4Cl)[nH]c23)cc1Cl` the IC50 (HEPG2TOX_HILL_SLOPE 6.23, HEPG2TOX_R_SQUARED 0.841, PBLUC_HILL_SLOPE 1.89, PBLUC_R_SQUARED 0.243, read-out: LUCIFERASE INFECTION ASSAY - IC50) was 5.64 µM and the IC90 was > 10 µM.
In the case of `COc1cc(/C=C(/C(=O)OCC(=O)NC2CCCCC2C)c2ccc(-c3ccccc3)cc2)cc(OC)c1OC` (configuration not stated), the IC50 (HEPG2TOX_HILL_SLOPE 6.06, HEPG2TOX_R_SQUARED 0.736, PBLUC_HILL_SLOPE 16.1, PBLUC_R_SQUARED 0.664, read-out: LUCIFERASE INFECTION ASSAY - IC50) is reported as 3.32 µM and the IC90 is reported as 3.8 µM.
`CCN1CCN(c2nc(-c3ccccc3)nc3sc(-c4ccccc4)cc23)CC1` was tested, and the IC50 (HEPG2TOX_HILL_SLOPE 6.07, HEPG2TOX_R_SQUARED 0.861, PBLUC_HILL_SLOPE 3.24, PBLUC_R_SQUARED 0.199, read-out: LUCIFERASE INFECTION ASSAY - IC50) was 6.9 µM and the IC90 was > 10 µM.
In the case of `Cc1nnc(Sc2ccc([N+](=O)[O-])c(Sc3nnc(C)s3)n2)s1`, the IC50 (HEPG2TOX_HILL_SLOPE 6.33, HEPG2TOX_R_SQUARED 0.72, PBLUC_HILL_SLOPE 8.1, PBLUC_R_SQUARED 0.222, read-out: LUCIFERASE INFECTION ASSAY - IC50) is reported as > 8.58 µM and the IC90 is reported as > 8.58 µM.
In the case of `CC(C)(C)c1csc(Cc2ccc(-c3csnn3)cc2)n1`, the IC50 (HEPG2TOX_HILL_SLOPE 6.43, HEPG2TOX_R_SQUARED 0.485, PBLUC_HILL_SLOPE 2.92, PBLUC_R_SQUARED 0.738, read-out: LUCIFERASE INFECTION ASSAY - IC50) is reported as 4.09 µM and the IC90 is reported as 8.68 µM.
With `NC(=NC(=S)Nc1cc(Cl)ccc1Cl)c1ccccc1` the IC50 (HEPG2TOX_HILL_SLOPE 6.22, HEPG2TOX_R_SQUARED 0.375, read-out: LUCIFERASE INFECTION ASSAY - IC50) was > 10.2 µM and the IC90 was > 10.2 µM.
For `CCCc1cc(=O)n2nc(Cc3ccccc3)c(-c3ccccc3)c2[nH]1`, the IC50 (HEPG2TOX_HILL_SLOPE 6.09, HEPG2TOX_R_SQUARED 0.391, read-out: LUCIFERASE INFECTION ASSAY - IC50) was > 9.61 µM and the IC90 was > 9.61 µM.
Work on `CNC(=O)c1ccc(CN(Cc2ccco2)c2nc(C(F)(F)F)nc3ccccc23)cc1` yielded an IC50 (HEPG2TOX_HILL_SLOPE 6.45, HEPG2TOX_R_SQUARED 0.103, PBLUC_HILL_SLOPE 3.77, PBLUC_R_SQUARED 0.847, read-out: LUCIFERASE INFECTION ASSAY - IC50) of 1.99 µM and an IC90 of 3.56 µM.
For `COCc1cccc(-c2cc(-c3cc4ccccc4s3)cnc2N)c1`, the IC50 (HEPG2TOX_HILL_SLOPE 6.43, HEPG2TOX_R_SQUARED 0.192, PBLUC_HILL_SLOPE 1.27, PBLUC_R_SQUARED 0.564, read-out: LUCIFERASE INFECTION ASSAY - IC50) was 5.74 µM and the IC90 was > 9.53 µM.
